These results are taken from ChEMBL document CHEMBL5465560, “Selectivity Literature for EUbOPEN Chemogenomic Library” (2024).

A value given as a limit tells only on which side of the number the result lay.

The target in test [1] is MAP kinase-interacting serine/threonine-protein kinase 1 (Homo sapiens) (UniProt Q9BUB5). Kind of test: Selectivity interaction (KinomeScan (DiscoverX)) EUB0001619a MKNK1. To be noted: at 1 µM.
Test [2] concerns the target T1, Serine/threonine-protein kinase 36 (Homo sapiens) (UniProt Q9NRP7).
T1 sequence (whole entry): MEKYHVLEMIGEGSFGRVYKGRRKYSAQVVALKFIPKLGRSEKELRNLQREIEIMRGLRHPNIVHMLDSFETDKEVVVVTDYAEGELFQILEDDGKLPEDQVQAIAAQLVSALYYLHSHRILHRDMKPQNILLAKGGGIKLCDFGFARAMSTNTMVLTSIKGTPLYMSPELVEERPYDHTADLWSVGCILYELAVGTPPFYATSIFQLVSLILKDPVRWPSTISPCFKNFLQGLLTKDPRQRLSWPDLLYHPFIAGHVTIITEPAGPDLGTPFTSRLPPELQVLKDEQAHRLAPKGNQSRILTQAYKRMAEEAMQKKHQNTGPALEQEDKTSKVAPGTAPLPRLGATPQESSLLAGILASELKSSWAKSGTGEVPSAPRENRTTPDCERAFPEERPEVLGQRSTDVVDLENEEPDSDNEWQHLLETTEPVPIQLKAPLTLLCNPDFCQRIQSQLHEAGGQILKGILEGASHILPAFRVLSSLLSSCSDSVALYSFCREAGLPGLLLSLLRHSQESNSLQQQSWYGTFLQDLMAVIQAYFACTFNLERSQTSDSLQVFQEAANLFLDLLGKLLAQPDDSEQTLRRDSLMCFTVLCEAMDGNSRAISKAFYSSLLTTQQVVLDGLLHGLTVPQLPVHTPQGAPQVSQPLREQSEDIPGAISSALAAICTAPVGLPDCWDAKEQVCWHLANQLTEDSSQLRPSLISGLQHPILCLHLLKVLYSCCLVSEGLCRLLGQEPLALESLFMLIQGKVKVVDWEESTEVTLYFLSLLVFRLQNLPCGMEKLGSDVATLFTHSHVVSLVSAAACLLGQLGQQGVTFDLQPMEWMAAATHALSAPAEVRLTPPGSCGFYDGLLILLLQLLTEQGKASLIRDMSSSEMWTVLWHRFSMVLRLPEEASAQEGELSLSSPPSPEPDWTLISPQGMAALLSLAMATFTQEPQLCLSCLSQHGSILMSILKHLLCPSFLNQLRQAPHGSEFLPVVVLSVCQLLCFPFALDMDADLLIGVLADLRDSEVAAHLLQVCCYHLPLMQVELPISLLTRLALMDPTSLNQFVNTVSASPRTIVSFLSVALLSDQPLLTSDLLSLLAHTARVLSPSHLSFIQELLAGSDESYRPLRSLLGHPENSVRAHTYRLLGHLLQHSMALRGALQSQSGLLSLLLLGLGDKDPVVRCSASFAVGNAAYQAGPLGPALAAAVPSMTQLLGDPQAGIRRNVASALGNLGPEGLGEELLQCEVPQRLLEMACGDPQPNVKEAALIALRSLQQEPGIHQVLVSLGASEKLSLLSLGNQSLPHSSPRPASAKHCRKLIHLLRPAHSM
Kind of test: Selectivity interaction (KinomeScan (DiscoverX)) EUB0001619a STK36. The note with it: at 1 µM.

For test [3], the target named is Serine/threonine-protein kinase PAK 4 (Homo sapiens, UniProt O96013). Kind of test: Selectivity interaction (SelectScreen profiling (Invitrogen)) EUB0000607a PAK4. To be noted: at 2 µM.
Test [4] addresses Cyclin-dependent kinase 2 (Homo sapiens, UniProt P24941). Kind of test: Selectivity interaction (KinomeScan (DiscoverX)) EUB0000045b CDK2.
For test [5], the target named is Muscarinic acetylcholine receptor M3 (Homo sapiens, UniProt P20309). Kind of test: Selectivity interaction (GPCR panel (PDSP screen)) EUB0000311b CHRM3. The note with it: at 10 µM.
Muscarinic acetylcholine receptor M3, sequence (P20309 whole entry, looked up): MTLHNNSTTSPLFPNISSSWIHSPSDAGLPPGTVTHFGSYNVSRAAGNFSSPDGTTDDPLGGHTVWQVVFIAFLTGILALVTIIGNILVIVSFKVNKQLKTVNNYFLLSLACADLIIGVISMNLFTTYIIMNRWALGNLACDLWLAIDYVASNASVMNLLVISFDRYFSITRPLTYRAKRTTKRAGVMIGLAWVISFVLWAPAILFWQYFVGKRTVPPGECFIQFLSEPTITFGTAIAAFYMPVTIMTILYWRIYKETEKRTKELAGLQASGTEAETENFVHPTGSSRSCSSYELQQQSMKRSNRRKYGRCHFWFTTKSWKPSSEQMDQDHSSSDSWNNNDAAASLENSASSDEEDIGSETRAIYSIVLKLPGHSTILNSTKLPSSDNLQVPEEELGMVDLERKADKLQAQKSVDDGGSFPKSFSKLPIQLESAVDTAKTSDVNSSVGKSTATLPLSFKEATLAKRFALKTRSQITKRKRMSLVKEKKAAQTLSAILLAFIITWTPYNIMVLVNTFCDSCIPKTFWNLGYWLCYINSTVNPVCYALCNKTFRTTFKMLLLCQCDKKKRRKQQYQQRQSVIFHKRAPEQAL
For test [6], the target named is Serine/threonine-protein kinase B-raf (Homo sapiens) (UniProt P15056). Description: (§1) Selectivity interaction (Ambit KINOMEscan and KiNATiv profiling in Jurkat cells) EUB0000090b BRAF. The class given is cell-based. The note with it: at 1 µM.
Test [7] deals with Serine/threonine-protein kinase B-raf (Homo sapiens), P15056 [V600E]. The test is described as §1. Type of test: cell-based. To be noted: at 1 µM.
For test [8], the target named is Histone-lysine N-methyltransferase SETD2 (Homo sapiens) (UniProt Q9BYW2). Kind of test: Selectivity interaction (Transferase panel (protein, RNA, and DNA methyltransferases. and EP300 (acetyltransferase))) EUB0000270b SETD2.
Histone-lysine N-methyltransferase SETD2 (Homo sapiens), sequence (Q9BYW2 whole entry): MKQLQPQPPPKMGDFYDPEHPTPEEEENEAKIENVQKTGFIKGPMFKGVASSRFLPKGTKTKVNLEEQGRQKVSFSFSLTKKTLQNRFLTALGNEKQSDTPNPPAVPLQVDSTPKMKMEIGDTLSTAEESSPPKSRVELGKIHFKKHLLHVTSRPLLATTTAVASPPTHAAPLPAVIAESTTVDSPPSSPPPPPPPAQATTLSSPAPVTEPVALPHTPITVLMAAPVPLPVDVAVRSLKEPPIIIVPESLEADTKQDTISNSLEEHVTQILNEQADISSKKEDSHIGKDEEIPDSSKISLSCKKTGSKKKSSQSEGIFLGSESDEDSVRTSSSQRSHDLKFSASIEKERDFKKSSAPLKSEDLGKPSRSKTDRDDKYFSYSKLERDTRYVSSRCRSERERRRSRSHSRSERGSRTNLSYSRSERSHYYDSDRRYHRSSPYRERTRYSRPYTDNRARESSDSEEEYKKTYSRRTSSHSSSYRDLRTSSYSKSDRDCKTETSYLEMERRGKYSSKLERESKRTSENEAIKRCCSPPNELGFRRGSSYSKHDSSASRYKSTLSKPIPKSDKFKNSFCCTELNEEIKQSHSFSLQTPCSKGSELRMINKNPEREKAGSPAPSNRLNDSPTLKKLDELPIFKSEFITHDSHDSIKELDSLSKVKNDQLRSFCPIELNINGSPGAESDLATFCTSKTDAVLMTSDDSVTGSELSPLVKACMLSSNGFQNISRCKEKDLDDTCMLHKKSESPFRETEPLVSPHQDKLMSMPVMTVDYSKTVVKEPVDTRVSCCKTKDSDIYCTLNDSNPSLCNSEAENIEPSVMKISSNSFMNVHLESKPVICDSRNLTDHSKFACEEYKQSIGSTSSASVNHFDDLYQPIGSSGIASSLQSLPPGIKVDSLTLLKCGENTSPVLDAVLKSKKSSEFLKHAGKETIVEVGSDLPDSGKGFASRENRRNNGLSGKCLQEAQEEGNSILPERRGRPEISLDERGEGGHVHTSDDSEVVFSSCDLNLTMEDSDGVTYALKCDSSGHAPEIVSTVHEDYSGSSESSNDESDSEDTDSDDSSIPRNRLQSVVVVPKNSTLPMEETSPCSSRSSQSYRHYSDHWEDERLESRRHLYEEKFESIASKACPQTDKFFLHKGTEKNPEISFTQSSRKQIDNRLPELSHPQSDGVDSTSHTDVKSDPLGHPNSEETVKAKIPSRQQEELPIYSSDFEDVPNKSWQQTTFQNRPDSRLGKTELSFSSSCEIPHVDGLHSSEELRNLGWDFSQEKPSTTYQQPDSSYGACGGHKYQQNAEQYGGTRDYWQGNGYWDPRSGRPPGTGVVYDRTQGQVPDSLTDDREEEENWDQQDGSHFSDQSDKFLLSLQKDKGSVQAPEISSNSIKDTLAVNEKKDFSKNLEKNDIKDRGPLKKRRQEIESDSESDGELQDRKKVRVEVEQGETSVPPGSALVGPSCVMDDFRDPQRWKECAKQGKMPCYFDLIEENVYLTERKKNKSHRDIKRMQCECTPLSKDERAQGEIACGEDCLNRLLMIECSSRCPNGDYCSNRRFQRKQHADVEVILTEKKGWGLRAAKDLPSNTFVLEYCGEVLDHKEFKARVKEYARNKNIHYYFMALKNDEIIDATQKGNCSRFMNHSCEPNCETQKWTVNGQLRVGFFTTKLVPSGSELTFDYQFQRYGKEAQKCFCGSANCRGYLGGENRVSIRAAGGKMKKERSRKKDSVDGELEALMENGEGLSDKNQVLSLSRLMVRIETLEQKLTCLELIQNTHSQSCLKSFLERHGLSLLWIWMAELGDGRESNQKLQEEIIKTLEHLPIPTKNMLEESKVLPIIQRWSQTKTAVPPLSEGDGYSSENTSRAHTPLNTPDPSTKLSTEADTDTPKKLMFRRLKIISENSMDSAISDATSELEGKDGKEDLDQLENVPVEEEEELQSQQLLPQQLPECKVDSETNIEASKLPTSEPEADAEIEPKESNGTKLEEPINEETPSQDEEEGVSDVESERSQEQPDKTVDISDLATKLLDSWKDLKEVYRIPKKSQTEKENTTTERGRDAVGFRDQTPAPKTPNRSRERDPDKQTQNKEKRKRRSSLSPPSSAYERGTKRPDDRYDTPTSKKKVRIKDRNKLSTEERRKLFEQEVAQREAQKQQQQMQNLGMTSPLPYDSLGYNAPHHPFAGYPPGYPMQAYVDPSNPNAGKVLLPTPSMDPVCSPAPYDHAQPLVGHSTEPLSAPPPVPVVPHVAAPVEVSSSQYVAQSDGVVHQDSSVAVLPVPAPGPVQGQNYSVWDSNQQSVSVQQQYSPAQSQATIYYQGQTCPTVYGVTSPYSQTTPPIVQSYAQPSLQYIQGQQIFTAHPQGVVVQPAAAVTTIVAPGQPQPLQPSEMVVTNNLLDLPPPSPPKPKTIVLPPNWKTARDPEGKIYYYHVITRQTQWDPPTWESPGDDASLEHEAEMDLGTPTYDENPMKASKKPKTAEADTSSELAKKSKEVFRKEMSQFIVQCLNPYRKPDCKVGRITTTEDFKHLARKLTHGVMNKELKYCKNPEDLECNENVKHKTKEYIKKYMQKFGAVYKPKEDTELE
The target in test [9] is Platelet-derived growth factor receptor alpha (Homo sapiens, UniProt P16234). Kind of test: Selectivity interaction (KinomeScan (DiscoverX)) EUB0000618a PDGFRA. To be noted: at 10 µM.
In test [10] the target is Phosphatidylinositol 4-phosphate 5-kinase type-1 gamma (Homo sapiens) (UniProt O60331). Kind of test: Selectivity interaction (KinomeScan (DiscoverX)) EUB0000618a PIP5K1C. To be noted: at 10 µM.
Phosphatidylinositol 4-phosphate 5-kinase type-1 gamma (Homo sapiens), sequence (O60331 whole entry): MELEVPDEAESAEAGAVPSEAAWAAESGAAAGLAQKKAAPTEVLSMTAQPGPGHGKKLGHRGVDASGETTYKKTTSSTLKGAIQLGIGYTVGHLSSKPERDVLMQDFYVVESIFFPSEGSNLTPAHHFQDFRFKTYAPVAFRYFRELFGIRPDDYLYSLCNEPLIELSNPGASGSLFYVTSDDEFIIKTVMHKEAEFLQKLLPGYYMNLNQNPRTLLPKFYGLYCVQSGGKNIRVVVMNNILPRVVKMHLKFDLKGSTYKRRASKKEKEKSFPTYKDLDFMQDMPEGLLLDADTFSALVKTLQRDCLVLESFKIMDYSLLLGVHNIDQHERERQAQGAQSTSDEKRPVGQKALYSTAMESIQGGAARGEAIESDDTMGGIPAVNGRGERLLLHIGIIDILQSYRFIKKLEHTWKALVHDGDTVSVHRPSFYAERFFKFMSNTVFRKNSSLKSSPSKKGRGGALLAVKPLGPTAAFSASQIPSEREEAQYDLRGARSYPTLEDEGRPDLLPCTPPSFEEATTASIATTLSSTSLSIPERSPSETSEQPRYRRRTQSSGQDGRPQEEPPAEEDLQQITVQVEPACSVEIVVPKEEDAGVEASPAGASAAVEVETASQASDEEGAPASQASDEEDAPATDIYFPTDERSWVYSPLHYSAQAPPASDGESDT
The target of test [11] is TGF-beta receptor type-2 (Homo sapiens) (UniProt P37173). Description: Selectivity interaction (KinomeScan (DiscoverX)) EUB0000092b TGFBR2. To be noted: at 10 µM.
TGF-beta receptor type-2 (Homo sapiens), sequence (P37173 whole entry): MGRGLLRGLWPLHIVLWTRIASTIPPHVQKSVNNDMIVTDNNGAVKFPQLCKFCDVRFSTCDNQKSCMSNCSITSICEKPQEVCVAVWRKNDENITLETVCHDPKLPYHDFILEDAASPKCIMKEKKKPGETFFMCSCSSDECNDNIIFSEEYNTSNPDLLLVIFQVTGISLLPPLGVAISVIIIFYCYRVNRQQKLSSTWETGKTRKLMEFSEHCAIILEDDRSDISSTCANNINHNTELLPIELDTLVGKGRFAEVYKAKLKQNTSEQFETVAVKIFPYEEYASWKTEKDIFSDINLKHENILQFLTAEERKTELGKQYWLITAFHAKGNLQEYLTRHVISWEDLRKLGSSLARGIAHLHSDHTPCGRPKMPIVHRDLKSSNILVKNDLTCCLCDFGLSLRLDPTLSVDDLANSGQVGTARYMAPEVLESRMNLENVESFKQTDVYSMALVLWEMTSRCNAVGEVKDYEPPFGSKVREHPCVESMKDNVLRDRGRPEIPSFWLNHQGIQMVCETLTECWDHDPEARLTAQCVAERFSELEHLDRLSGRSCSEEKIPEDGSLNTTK
For test [12], the target named is T1, Serine/threonine-protein kinase 36 (Homo sapiens). Description: Selectivity interaction (KinomeScan (DiscoverX)) EUB0001079a STK36. The note with it: at 1 µM.
Test [13] has as its target ALK tyrosine kinase receptor (Homo sapiens, UniProt Q9UM73). Kind of test: Selectivity interaction (Millipore kinase profiler) EUB0000124b ALK. The note with it: at 10 µM.
Test [14] in a line: Selectivity interaction (Kinase panel (KiNativ target engagement assay in Jurkat cells)) EUB0001635a STLK6. The note with it: Selectivity number of off-targets 0; Selectivity number of targets 233; Source Knowledge https://www.sciencedirect.com/science/article/pii/S2451945619300674?via%3Dihub; at 1 µM.

MAP kinase-interacting serine/threonine-protein kinase 1 (Homo sapiens), sequence (Q9BUB5 whole entry, looked up): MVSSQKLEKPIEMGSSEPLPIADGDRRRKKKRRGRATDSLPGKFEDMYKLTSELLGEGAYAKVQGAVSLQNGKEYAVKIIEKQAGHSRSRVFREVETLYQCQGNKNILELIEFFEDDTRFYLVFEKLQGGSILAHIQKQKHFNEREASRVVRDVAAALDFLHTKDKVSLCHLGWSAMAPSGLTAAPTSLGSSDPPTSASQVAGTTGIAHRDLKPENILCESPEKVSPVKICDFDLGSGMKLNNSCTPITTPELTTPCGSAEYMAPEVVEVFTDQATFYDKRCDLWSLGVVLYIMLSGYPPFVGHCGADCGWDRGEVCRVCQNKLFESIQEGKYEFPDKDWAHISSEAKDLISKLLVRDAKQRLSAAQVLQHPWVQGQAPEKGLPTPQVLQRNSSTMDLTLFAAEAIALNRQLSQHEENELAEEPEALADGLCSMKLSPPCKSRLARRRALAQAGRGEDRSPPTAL

On to `N#Cc1cccc(-c2c[nH]c3ncnc(N4CCOCC4)c23)c1`, for which the % of control in test [1] and in [2] was 100% in each case.
For `CNC(=O)Nc1ccc(-c2nc(N3CC4CCC(C3)O4)c3cnn(C4CCC5(CC4)OCCO5)c3n2)cc1`, the % of inhibition in test [3] came out at 13%.
On to `C=CC(=O)Nc1cc(-n2c(=O)ccc3cnc4ccc(-c5ccc(NS(C)(=O)=O)cc5)cc4c32)ccc1C`, for which the % of control in [4] (at 1 µM) was 95%; in [4] (at 10 µM), 100%.
`CCc1ccccc1C(=O)Nc1n[nH]c2c(C)c(F)c(C3C(C#N)=C(C)N(C)C(C)=C3C#N)cc12` [BAY-3827]: the % of inhibition in [5] is 22.5%.
Take `CN(C)C/C=C/C(=O)Nc1ccc(C(=O)N2CCCC(Nc3ncc(Cl)c(-c4c[nH]c5ccccc45)n3)C2)cc1` (stereo unspecified): the % of control in test [6] stood at 98%; in test [7] it was 100%.
Turning to `Cc1cc(CN)cc(C)c1-c1ncn(C)c1-c1cncn1C`, the % activity is > 90% in test [8] (at 1 µM) and > 80% in test [8] (at 10 µM).
For the compound `O[C@H]1CC[C@H](Nc2ncc3nc(Nc4c(F)cc(F)cc4F)n([C@H]4CCOC4)c3n2)CC1`, the % of control was found to be 82% in test [9] and 76% in test [10].
With `CCC(=O)N1CCN(c2ccc(-n3c(=O)ccc4cnc5ccc(-c6cnc7ccccc7c6)cc5c43)cc2C(F)(F)F)CC1`, in [11], the % of control turned out to be 77%.
As for `Nc1cnc(N2CCc3cc(S(=O)(=O)Nc4c(F)cc(Cl)cc4F)cc(N4CCCC4=O)c32)nc1` [TP-020n], the % of control in test [12] worked out at 98%.
In test [13], `CC(=O)Nc1cccc(-n2c(=O)n(C3CC3)c(=O)c3c(Nc4ccc(I)cc4F)n(C)c(=O)c(C)c32)c1` gave a % of control of 166%.
Regarding `C=CC(=O)Nc1ccc(C(=O)Nc2[nH]nc3c2CN(C(=O)N[C@H](CN(C)C)c2ccccc2)C3(C)C)cc1`, the “% of engagement” value in test [14] is listed as -0.5%.
